ChEMBL document CHEMBL3507680, “University of Dundee, Gates Library screen for HepG2 cell viability”

Experiment: Human HepG2 cell viability assay in 384 well format
Format: toxicity, cell-based
Design: dose 125 nL, time 70.5 hour; concentration not given beside the values
Conditions: HepG2 cells, read-out: Inhibition

Row | SMILES | cytotoxicity at 70.5 h
1 | CNC(=O)c1ccc(=O)n(Cc2csc(C(C)(C)C)n2)c1 | -18.4%
2 | Cc1nc(C2CCCN(C(=O)c3c[nH]c(C(C)C)n3)C2)no1 (centres undefined) | -2.72%
3 | CN1CCC2(CCCN(S(=O)(=O)c3ccc(-c4cnco4)s3)C2)C1 (centres undefined) | -6.76%
4 | COCC(C)(C#N)NC(=O)COc1ccccc1Br (centres undefined) | -0.405%
5 | CCN(Cc1ccccc1)C(=O)CCN1C[C@@H](C(=O)O)[C@H](C2CC2)C1 | -8.23%
6 | CC(C(=O)NCCN1CCN(C)CC1)n1cncn1 (centres undefined) | -7.19%
7 | Cc1ccc(N(CCC#N)C(=O)CN2CCCC2c2ccsc2)cc1 (centres undefined) | 0.989%
8 | Cc1cnccc1CN(C)C(=O)C(C)(C)NC(=O)c1cccs1 | 0.902%
9 | COc1c(C2CCCN2C(=O)c2cncnc2C)c(C)nn1C (centres undefined) | 39.1%
10 | CCc1nc(C)c(CN2CCOC(Cc3ccccc3Cl)C2)[nH]1 (centres undefined) | -6.82%
11 | Cc1nc([C@@H]2C[C@@H]3CCN(C(=O)c4occc4C)C[C@H]3O2)no1 | 23.8%
12 | Cc1ccc(CC(=O)N2CSCC2C(=O)N(C)Cc2ccco2)o1 (centres undefined) | -12.2%
13 | COc1ccccc1[C@@H]1CN(Cc2cnn(C)c2C)C[C@H]1C(=O)O | 7.39%
14 | Cc1nn(CC(=O)O)c2nccc(-c3ccc(F)cc3)c12 | -8.88%
15 | c1ccc2ncc(CC3CNCCOC3)cc2c1 (centres undefined) | -0.7%
16 | O=C(N1CCOCC1)N1C[C@@H]2OCCN(C(=O)c3ccco3)[C@@H]2C1 | -1.55%
17 | CCc1nc(CNC(C)c2cccc(N3CCCC3=O)c2)cs1 (centres undefined) | -12.3%
18 | COCC(=O)N1CCc2cccc(S(=O)(=O)N3CCN(C)CC3)c2C1 | -2.39%
19 | CC(C(=O)Nc1ccnn1C(C)C)N1CCCN(c2nccs2)CC1 (centres undefined) | -3.68%
20 | Cc1cc(NCCC(=O)NC(C)C)nc(-c2ccncc2)n1 | 3.03%
21 | CCn1c(C2CCCN(Cc3ccc(OC)c(C)c3C)C2)nn(C)c1=O (centres undefined) | -5.07%
22 | Cc1ccc(CN2C[C@H](O)C[C@H]2c2nc(-c3ccc(F)cc3)no2)cc1 | -7.37%
23 | O=C(C1CCOC1)N1CCC2(CCN(Cc3nccs3)CC2)CC1 (centres undefined) | -15.1%

Row | SMILES | cytotoxicity at 70.5 h
24 | O=C(c1csc(-c2ncccn2)n1)N1CCCC1Cn1cccn1 (centres undefined) | 22.5%
25 | Cc1nnc2n1CCN(CC(=O)NC(C)c1ccc3ccccc3c1)C2 (centres undefined) | 17.7%
26 | CCC[C@H]1CN(CCS(C)(=O)=O)C[C@@H]1NC(=O)c1cccnn1 | 7.31%
27 | Cc1cnn(CCC(=O)N2CCCC(c3nc(C)c(C)s3)C2)c1 (centres undefined) | 1.92%
28 | O=C(Nc1cccn(Cc2ccccc2)c1=O)c1ccncc1F | 14.1%
29 | CC(C)C(=O)N1CCC2(CN(CC3CCCC3)C2)C1 | -5.09%
30 | Fc1cccc(-n2cc(CN3CCCCC3CCn3ccnc3)cn2)c1 (centres undefined) | 4.66%
31 | CC(NC(=O)NCCCN(C)C)c1ccc2c(c1)CCC(=O)N2 (centres undefined) | -10.2%
32 | CN1CCN(C2COC3(CCN(c4ccc(C#N)cc4)CC3)C2)CC1 (centres undefined) | -6.07%
33 | CCCOc1ccc(C(=O)N2C[C@@H](CN3CCCC3)[C@@H](CO)C2)cc1Cl | 1.78%
34 | COc1ccc(CCC(=O)N(C)CCN2CCOCC2)cc1OC | -7.02%
35 | Cc1cnn(CCC(=O)N2CCCN(c3nc(C)cs3)CC2)c1 | -3.54%
36 | O=C(CC1COCCN1)NCCc1nc(-c2ccccn2)no1 (centres undefined) | -6.55%
37 | Cc1csc2c(=O)n(CCN3CCNCC3)cnc12 | 11.9%
38 | C1CC(c2noc(C3CC3)n2)N(Cc2nc(C3CC3)no2)C1 (centres undefined) | -10.7%
39 | CCn1nccc1C(=O)Nc1nc(C)c(C(C)=O)s1 | -5.2%
40 | CN(Cc1cc(Cl)cc2cccnc12)CC1CCN(CCO)CC1 | -2.37%
41 | CN(C)Cc1nnc(C2CCCN(c3nc(C(N)=O)cs3)C2)n1C (centres undefined) | -7.8%
42 | c1ccc(Cc2noc(CNC3CCc4ncnn4C3)n2)cc1 (centres undefined) | -5.32%
43 | NCC1CCCCN1Cc1cc(O)c2cccc(F)c2n1 (centres undefined) | 21.6%
44 | Cc1ccccc1OCCN(C)Cc1noc(CC(C)C)n1 | 4.63%
45 | Cc1noc(-c2ccc(N[C@H]3CCCCNC3=O)nc2)n1 | -1.42%
46 | N#CCCN(Cc1ccco1)C(=O)c1ccc(OCC2CC2)cc1 | -4.89%

Row | SMILES | cytotoxicity at 70.5 h
47 | CN(C)C(=O)CNC(=O)c1cc2c(s1)CCN2S(C)(=O)=O | -10.7%
48 | CCn1cc(NC(=O)C(C)n2ncc(Cl)c2C)c(C(=O)OC)n1 (centres undefined) | -3.71%
49 | Cc1oncc1C(=O)N1CC[C@H]2[C@H](C[C@@H](CN3CCCC3)N2C)C1 | -2.32%
50 | CCOc1ccnc(N2CCN(C(=O)c3cc[nH]n3)CC2)n1 | -4.46%
51 | c1ccc(-c2nc(CNC3CCCN(c4cccnn4)C3)no2)cc1 (centres undefined) | 18.6%
52 | Cc1nnc(C(C)N2CCN(Cc3ccc4c(c3)OCO4)CC2)o1 (centres undefined) | 16.9%
53 | CN1CCCC(Cc2cc(N(C)C)ncn2)C1 (centres undefined) | -5.24%
54 | CC(Cn1cccn1)NC(=O)N(C)Cc1ccc(Cl)s1 (centres undefined) | -16.6%
55 | O=C1COC2(CCN(Cc3ccccn3)CC2)CN1CC1CC1 | -0.792%
56 | Cc1ccc(CN(Cc2ccncc2)C2CCN(C)CC2)s1 | 15.5%
57 | COc1ccccc1CN1CC(O)CN(S(=O)(=O)C(C)C)CC1=O (centres undefined) | 16.7%
58 | c1ccn2c(SCC3CN=C(N4CCOCC4)S3)ncc2c1 (centres undefined) | 19.3%
59 | Clc1ccccc1OCCc1cc(C2CCNC2)n[nH]1 (centres undefined) | -4.47%
60 | Cc1nc(C)n(CC2CN(Cc3ccc4c(c3)OCCO4)CCO2)n1 (centres undefined) | -14.3%
61 | Cc1csc(CNC(=O)Cc2ccc3c(c2)OCCO3)n1 | -5.71%
62 | CN(C)c1ccc(CNC2(c3ccc(F)cc3)CCOCC2)cc1F | -7.63%
63 | Cc1cc(NC(=O)NCCc2cccnc2)n(C)n1 | -3.88%
64 | Cc1cc(C)n(C2CN(CCC(=O)NCCc3ccccc3)C2)n1 | -1.03%
65 | CC(=O)N1CCN(C(C)C)CC(COc2ccccc2)C1 (centres undefined) | -6.04%
66 | CN(Cc1ccon1)C1CCN(c2cccc(-c3cscn3)c2)CC1 | -4.4%
67 | Cc1cnn(C2CCCN(C(=O)CCCOc3cccc(F)c3)C2)c1 (centres undefined) | 0.97%
68 | Cc1sc2nc(C(F)(F)F)nc(N3CCN(S(C)(=O)=O)CC3)c2c1C | -4.32%
69 | Cc1cc(C(=O)OCC2CCCN2C(N)=O)c(C)o1 (centres undefined) | -6.63%

Row | SMILES | cytotoxicity at 70.5 h
70 | CC(C)(C)NC(=O)CNc1ccc(Br)cn1 | 0.762%
71 | Cc1ccc(CN2CC[C@H]3OCC[C@@H](C(=O)N4CCCCO4)[C@@H]3C2)o1 | 47.1%
72 | CCn1cc(-c2n[nH]c(=O)n2-c2ccc3c(c2)OCO3)c(C)n1 | -4.59%
73 | CCc1cnc(N2CCC3(CCN(CC)C3=O)CC2)nc1 | -4.14%
74 | COc1cccc(N2CCC(CNC(=O)N(C)Cc3ccco3)C2)c1 (centres undefined) | -3.66%
75 | O=C1CN([C@@H]2CC[C@@H](NS(=O)(=O)c3ccccc3F)[C@H]2O)CCN1 | 25.1%
76 | CN1C(=O)[C@H]2CC[C@@H]1CN(c1ncnc3ccsc13)C2 | 11.8%
77 | O=C(Cn1c(=O)n(Cc2ccco2)c2ncccc21)NC1CCCCC1 | 38.5%
78 | O=C(O)c1cc(S(=O)(=O)Nc2cc(F)cc(F)c2)cc2c1OCCO2 | -4.5%
79 | Cc1ccc(S(=O)(=O)N2CCC(O)(CN(C)C)C2)cc1 (centres undefined) | -4.32%
80 | CCCc1nnc(C(=O)N(C)Cc2cnc3ccccn23)o1 | 33.7%
81 | Cc1cc(C)nc(N2CCC(c3ccnc(N(C)C)n3)CC2)n1 | -3.9%
82 | CCn1cc(NC(=O)NCC(c2ccsc2)N(C)C)cn1 (centres undefined) | -6.99%
83 | CCN1CCC2(CCN(c3ncccn3)CC2)C1=O | -8.88%
84 | Cn1nc(C(=O)N2CCCCCC2)cc1NC(=O)c1ccccc1 | -9.93%
85 | CCOCC(O)CN1CCN(C(=O)c2ccc(OC)cc2F)CC1 (centres undefined) | -21.8%
86 | O=C(c1ccc[nH]1)N1C[C@H]2CN(Cc3cccc(F)c3)C(=O)[C@H]2C1 | -0.293%
87 | CCCN(CC(=O)N(C)C)C(=O)c1ccc(-c2nc(C)cs2)cc1 | -6.25%
88 | Cc1ccn(-c2ccccc2NCc2cccnc2)n1 | 5.47%
89 | O=C(Nc1ccc2occc2c1)N1CCCC(O)(CO)CC1 (centres undefined) | -1.52%
90 | Cc1nc(N2CCCC2)nc2c1CCN(Cc1ccsc1)CC2 | 6.56%
91 | Cn1nccc1C1CCN(CC(=O)NCC2CC2)CC1 | -8.55%
92 | CN(C)C(=O)C1OC2(CCN(C(=O)c3ccoc3)CC2)c2ccccc21 (centres undefined) | -14.7%

Row | SMILES | cytotoxicity at 70.5 h
93 | Cc1cc(CN2CCCC2c2noc(C(C)C)n2)on1 (centres undefined) | -15.4%
94 | CCCNC(=O)c1cc(C(C)C)nc(N2CCCCC2)n1 | 3.03%
95 | CCOc1ccccc1C(CC(=O)Nc1ccncc1)NC(C)=O (centres undefined) | -7.74%
96 | O=S(=O)(CC1CCCO1)Nc1cc(Cl)ccc1-n1cccn1 (centres undefined) | 2.79%
97 | CC(C)Nc1nc(O)cc(C(C)n2ncc3ccccc3c2=O)n1 (centres undefined) | -5.33%
98 | Nc1nc2nc(C3CCCN(C(=O)c4cnccn4)C3)ccc2s1 (centres undefined) | -3.81%
99 | Cc1cc(CN(C)C(=O)C(c2ccccc2)N2CCSCC2)no1 (centres undefined) | 8.49%
100 | COCCCNc1c(C#N)c2c(c3nncn13)CN(C)CC2 | -28.4%
101 | CCn1ncnc1C(C)NC(=O)CC1CCN(C(C)C)CC1 (centres undefined) | 30%
102 | Cc1ccc(NC2CCN(C(=O)c3cccn3C)CC2)nn1 | 32.5%
103 | CC(=O)N1Cc2nccn2CC(CNC(=O)c2cccnc2)C1 (centres undefined) | -11.5%
104 | Cc1ccc(C)c(CC(=O)NC2(C#N)CCOCC2)c1 | 1.6%
105 | C[C@@H]1CN(C2CCN(c3ccccc3F)CC2)C[C@]1(C)O | -6.48%
106 | COc1cc(Cl)ccc1C(=O)NCC(=O)Nc1nccs1 | -5.69%
107 | Cc1cc(C)n2ncc(CN3CCC(Cn4cc(CO)nn4)CC3)c2n1 | 0.595%
108 | O=C(CCNc1ncccn1)NCc1ccc(Br)s1 | -11.3%
109 | CN1CCNC(Cc2ccc(-c3ccncc3)cc2)C1=O (centres undefined) | -5.04%
110 | Cn1ncnc1CCNC(=O)c1cc(Cl)c(Cl)n1C | -2.76%
111 | CNS(=O)(=O)Cc1ccccc1CNc1ccc(C#N)cn1 | 22.4%
112 | CC(C)CCN1CC2(CCN(C3CCCOC3)CC2)OC1=O (centres undefined) | -8.74%
113 | N#CCSCCCN1CCN(C(=O)c2cccc(Cl)c2)CC1 | 2.68%
114 | CC(C)(C)n1ncc2c(=O)n(CC(=O)NCc3ccccc3Cl)cnc21 | -0.0412%
